Assays:
Sprague-Dawley rats [1] = experiment: Observation of the site of the subcutaneous injection; type: in vivo, rat; settings: subcutaneous, in MCT oil, all doses
Protocol: In Vivo Anti-inflammatory Activity and Gastric Toxicity. Groups of four rats were used for all studies. All doses were calculated as equivalent concentrations of Indo. […] For subcutaneous and intramuscular administration, rats were injected with 125-200 μL volumes of the test compositions (IndoH or [Cu2(Indo)4(OH2)2] in MCT oil). The control cohort was injected with equivalent volumes of neat MCT. Subcutaneous injections were made in the lower dorsal surface and intramuscular injections were made in the right hind thigh muscle. Inflammation was induced 1 h after dosing by injection of the formulation by an injection of carrageenan (0.1 mL, 1% w/v in isotonic saline) into the plantar region of the hind paw.

Sprague-Dawley rats [2] = experiment: Acute gastric ulceration after oral administration; type: in vivo, rat; settings: rat, in vivo
Protocol: Gastrointestinal Ulceration: To assess gastric damage, rats (n=4 per group) were fasted overnight with free access to water prior to the oral administration (non-anaesthetized) of the Test Samples or Test Compositions via oral gavage. The controls were dosed with CMC (2%) solution. Three hours after dosing, the rats were euthanised and the stomach was excised and opened by incision along the greater curvature. The stomach was rinsed, submerged in 10% formaldehyde for 1 h and examined to determine the extent of macroscopic gastric damage.
(§1) The total volume of the MCT or carbopol paste compositions administered per dose in the assessment of gastrointestinal ulceration was no more than 0.5 g.
In order to illustrate the adverse effects of decomposition of the copper complex in the formulation, the gastric toxicity of IndoH, Cu-acetate, a physical mixture of Cu-acetate and IndoH and [Cu2(Indo)4(DMF)2] were tested at equivalent doses of Indo (10 mg kg^−1) and/or Cu in the MCT paste or a 2% (w/v) aqueous solution of carboxymethylcellulose (CMC). The MCT paste formulations were prepared as described in Example 3 but using IndoH, Cu-acetate, a physical mixture of Cu-acetate and IndoH, or [Cu2(Indo)4(DMF)2] instead of [Cu2(Indo)4(OH2)2]. The gastric toxicity was tested as described above. The results of these experiments are illustrated in FIG. 3.
In further experiments designed to test the toxicity of solutions of the Cu complex, the [Cu2(Indo)4(DMF)2] complex was dissolved in DMF and gastric toxicities were assessed. […] Similar results would be expected using other complexes, including [Cu2(Indo)4(OH2)2], in a non-colloidal solution.

Sprague-Dawley rats [3] = experiment: Small intestine ulceration after oral administration; type: in vivo, rat; settings: rats fed, oral gavage, 24 h after dosing; IndoH 10 mg kg^−1, complexes 11 mg kg^−1; mean ± sem; listed as Sample F
Protocol: The rats were orally administered (non-anaesthetized) the Test Samples or Test Compositions via oral gavage. The controls were dosed with CMC (2%) solution.
as §1

[4] = EPR spectroscopic determination of Cu(II) monomer / dissociation of the complex in formulations; type: physicochemical; settings: percentage of the total amount of Cu in the composition; X-band EPR, 4 K
Protocol: The synthesis of [Cu2(Indo)4(OH2)2] may result in a product containing a small amount of monomer (typically 5% or less), and this monomer may or may not contain Indo Thus a composition containing [Cu2(Indo)4(OH2)2] may or may not contain a small amount of a Cu(II) monomer containing Indo.
The relative amounts of the Cu(II) monomer in samples of various compositions containing the complex [Cu2(Indo)4(OH2)2] were determined as described below. […]
EPR Spectroscopy. Low temperature (4-110 K) X-band EPR spectra of the compositions containing [Cu2(Indo)4(OH2)2] were measured at X-band frequencies (˜9.5 GHz) using a Bruker EMX EPR spectrometer equipped with a standard ER4120 X band cavity, EMX 035M NMR gaussmeter, EMX 032T field controller, EMX 081 magnet power supply, Bruker EMX 048T microwave bridge control and BVT2000 variable temperature unit and Oxford Instruments E900 continuous flow cryostat (for low temperature data collection). Low temperature X-band EPR Cu(II) spectra of samples of [Cu2(Indo)4(OH2)2] containing less than 0.47 mM Cu(II) were measured using a Bruker ESP 300 spectrometer equipped with a Hewlett Packard 5352B microwave frequency counter, Bruker ER 085C magnet power supply, Bruker ER 032 magnet field control, Bruker ER 023M signal channel and Bruker ESP 1600-1048 microwave bridge controller. […]

With `COc1ccc2c(c1)c(CC(=O)[O-])c(C)n2C(=O)c1ccc(Cl)cc1.COc1ccc2c(c1)c(CC(=O)[O-])c(C)n2C(=O)c1ccc(Cl)cc1.COc1ccc2c(c1)c(CC(=O)[O-])c(C)n2C(=O)c1ccc(Cl)cc1.COc1ccc2c(c1)c(CC(=O)[O-])c(C)n2C(=O)c1ccc(Cl)cc1.O.O.[Cu+2].[Cu+2]` [[Cu2(Indo)4(OH2)2]] the “adverse effect at the site of the injection” value (Sprague-Dawley rats [1]) was “None of the rats exhibited soreness, swelling, redness or any other adverse effect”, the “gastric toxicity as % of that of an equivalent dose of IndoH” value (Sprague-Dawley rats [2]) was “approximately 8%” and the “reduction of gastric toxicity versus free IndoH” value (Sprague-Dawley rats [2]) was 50%. The “Small intestine ulceration (mm^2)” value (Sprague-Dawley rats [3]) was 61.0±34.5 mm^2 and the “Cu(II) monomer (%)” value [4] was “^aThe technique is not applicable to dry powders, however, solid-state [Cu2(Indo)4L2] (L = OH2) contains <1% Cu(II) monomer fraction”.

From patent US20080039522A1, “Composition Containing a Complex Comprising a Metal Ion and a Carboxylate Ligand Having Anti-Inflammatory Activity” (Medical Therapies Limited, priority 2004, published 2008)
